Key:
[1] = Cytotoxicity against human HeLa cells expressing CD4, CCR5 after 3 days; type: cell-based; settings: HeLa cells expressing CD4 and CCR5
[2] = test system: Human immunodeficiency virus 1; assay: Antiviral activity against HIV1 JR-FL in human HeLa cells expressing CD4, CCR5 assessed as inhibition of integration of viral DNA into cell genome after 3 days by luciferase reporter gene assay; type: functional, organism-based; settings: Human immunodeficiency virus 1, JR-FL, 72 h
[3] = (§1) AUC in rat at 5 mg/kg, po; type: ADME, organism-based, Plasma; set-up: dose 5 mg/kg, route oral; settings: plasma
Rattus norvegicus [4] = assay: as §1; type: ADME, organism-based, Plasma; set-up: dose 5 mg/kg, route oral; settings: in vivo
Rattus norvegicus [5] = assay: Oral bioavailability in rat at 5 mg/kg; type: ADME, organism-based; settings: in vivo

EC50 [2]	AUC [3]	AUC (Rattus norvegicus [4])	F (Rattus norvegicus [5])	SMILES	CC50 at 72 h [1]
0.02 nM	–	–	–	Cc1csc(-c2ccnc3c(C(=O)C(=O)N4CCN(C(=O)c5ccccc5)CC4)c[nH]c23)c1	85000 nM
0.88 nM	–	–	–	O=C(C(=O)N1CCN(C(=O)c2ccccc2)CC1)c1c[nH]c2c(-n3ccnn3)ccnc12	> 300000 nM
0.09 nM	–	–	–	O=C(C(=O)N1CCN(C(=O)c2ccccc2)CC1)c1c[nH]c2c(-c3cncs3)ccnc12	> 300000 nM
3.06 nM	–	–	–	Cc1ccnc2c(C(=O)C(=O)N3CCN(C(=O)c4ccccc4)C[C@H]3C)c[nH]c12	> 300000 nM
12.3 nM	–	–	–	COc1ccnc2c(C(=O)C(=O)N3CCN(C(=O)c4ccccc4)CC3)c[nH]c12	> 300000 nM
0.64 nM	–	–	–	O=C(C(=O)N1CCN(C(=O)c2ccccc2)CC1)c1c[nH]c2c(-n3cncn3)ccnc12	> 300000 nM
10.8 nM	–	–	–	Cc1ncnn1-c1ccnc2c(C(=O)C(=O)N3CCN(C(=O)c4ccccc4)[C@H](C)C3)c[nH]c12	> 300000 nM
1.59 nM	–	–	–	Cc1cnn(-c2ccnc3c(C(=O)C(=O)N4CCN(C(=O)c5ccccc5)[C@H](C)C4)c[nH]c23)c1	> 150000 nM
0.21 nM	–	–	–	O=C(C(=O)N1CCN(C(=O)c2ccccc2)CC1)c1c[nH]c2c(-n3nc4ccccc4n3)ccnc12	124000 nM
61.1 nM	–	–	–	CON(C)C(=O)c1ccnc2c(C(=O)C(=O)N3CCN(C(=O)c4ccccc4)C[C@H]3C)c[nH]c12	> 300000 nM
7.37 nM	–	–	–	COc1ccnc2c(C(=O)C(=O)N3CCN(C(=O)c4ccccc4)C[C@H]3C)cn(C)c12	> 300000 nM
0.21 nM	–	–	–	Cc1csc(-c2ccnc3c(C(=O)C(=O)N4CCN(C(=O)c5ccccc5)[C@H](C)C4)c[nH]c23)c1	123000 nM
0.02 nM	–	–	–	C[C@@H]1CN(C(=O)c2ccccc2)CCN1C(=O)C(=O)c1c[nH]c2c(-c3cccs3)ccnc12	> 300000 nM
1.22 nM	–	–	–	C[C@@H]1CN(C(=O)c2ccccc2)CCN1C(=O)C(=O)c1c[nH]c2c(Cl)ccnc12	> 300000 nM
0.04 nM	–	–	–	Cc1csc(-c2ccnc3c(C(=O)C(=O)N4CCN(C(=O)c5ccccc5)C[C@H]4C)c[nH]c23)c1	48900 nM
4.9 nM	–	–	–	C[C@@H]1CN(C(=O)c2ccccc2)CCN1C(=O)C(=O)c1c[nH]c2ccccc12	195000 nM
0.31 nM	–	–	–	C[C@@H]1CN(C(=O)C(=O)c2c[nH]c3c(-n4nc5ccccc5n4)ccnc23)CCN1C(=O)c1ccccc1	74000 nM
1 nM	1.3 µM·h	–	–	COc1ccnc2[nH]cc(C(=O)C(=O)N3CCN(C(=O)c4ccccc4)C[C@H]3C)c12	> 300000 nM
0.59 nM	–	–	–	Cc1ncn(-c2ccnc3c(C(=O)C(=O)N4CCN(C(=O)c5ccccc5)[C@H](C)C4)c[nH]c23)n1	> 300000 nM
5.34 nM	–	–	–	C[C@@H]1CN(C(=O)C(=O)c2c[nH]c3c(-n4nnc5ccccc54)ccnc23)CCN1C(=O)c1ccccc1	71000 nM
0.1 nM	–	–	–	C[C@@H]1CN(C(=O)c2ccccc2)CCN1C(=O)C(=O)c1c[nH]c2c(-c3cc4ccccc4s3)ccnc12	170000 nM

EC50 [2]	AUC [3]	AUC (Rattus norvegicus [4])	F (Rattus norvegicus [5])	SMILES	CC50 at 72 h [1]
11.6 nM	–	–	–	C[C@@H]1CN(C(=O)C(=O)c2c[nH]c3c(Cl)ccnc23)CCN1C(=O)c1ccccc1	300000 nM
7.4 nM	–	–	–	COc1cccc(-c2ccnc3c(C(=O)C(=O)N4CCN(C(=O)c5ccccc5)CC4)c[nH]c23)n1	174000 nM
0.34 nM	–	5.6 µM·h	60%	C[C@@H]1CN(C(=O)C(=O)c2c[nH]c3c(-c4ncco4)ccnc23)CCN1C(=O)c1ccccc1	135000 nM
1.7 nM	–	–	–	C[C@@H]1CN(C(=O)c2ccccc2)CCN1C(=O)C(=O)c1c[nH]c2ncccc12	280000 nM
0.43 nM	–	–	–	C[C@@H]1CN(C(=O)c2ccccc2)CCN1C(=O)C(=O)c1c[nH]c2c(C(=O)Nc3nccs3)ccnc12	> 300000 nM
0.52 nM	–	–	–	Cc1cnc(-c2ccnc3c(C(=O)C(=O)N4CCN(C(=O)c5ccccc5)CC4)c[nH]c23)s1	251000 nM
0.32 nM	–	–	–	COc1ccc(-c2ccnc3c(C(=O)C(=O)N4CCN(C(=O)c5ccccc5)C[C@H]4C)c[nH]c23)cc1	> 300000 nM
3.4 nM	–	–	–	Cc1csc(NC(=O)c2ccnc3c(C(=O)C(=O)N4CCN(C(=O)c5ccccc5)C[C@H]4C)c[nH]c23)n1	> 300000 nM
0.31 nM	–	1.3 µM·h	41%	C[C@@H]1CN(C(=O)C(=O)c2c[nH]c3c(-c4nccs4)ccnc23)CCN1C(=O)c1ccccc1	35000 nM
0.68 nM	–	–	–	C[C@@H]1CN(C(=O)c2ccccc2)CCN1C(=O)C(=O)c1c[nH]c2c(-c3cncnc3)ccnc12	35300 nM
0.32 nM	–	9.6 µM·h	65%	O=C(C(=O)N1CCN(C(=O)c2ccccc2)CC1)c1c[nH]c2c(-n3nccn3)ccnc12	> 300000 nM
0.89 nM	–	–	–	O=C(C(=O)N1CCN(C(=O)c2ccccc2)CC1)c1c[nH]c2c(-n3cccn3)ccnc12	> 300000 nM
0.19 nM	–	–	–	Cc1csc(-c2ccnc3c(C(=O)C(=O)N4CCN(C(=O)c5ccccc5)[C@H](C)C4)c[nH]c23)n1	30000 nM
1.6 nM	–	–	–	C[C@@H]1CN(C(=O)c2ccccc2)CCN1C(=O)C(=O)c1c[nH]c2cccnc12	> 300000 nM
0.63 nM	–	–	–	COc1ccnc2c(C(=O)C(=O)N3CCN(C(=O)c4ccccc4)C[C@H]3C)c[nH]c12	> 300000 nM
3.38 nM	–	–	–	C[C@@H]1CN(C(=O)c2ccccc2)CCN1C(=O)C(=O)c1c[nH]c2c(C(=O)O)ccnc12	> 300000 nM
0.1 nM	–	–	–	C[C@@H]1CN(C(=O)c2ccccc2)CCN1C(=O)C(=O)c1c[nH]c2c(-c3nccs3)ccnc12	> 300000 nM
18.4 nM	–	–	–	O=C(C(=O)N1CCN(C(=O)c2ccccc2)CC1)c1c[nH]c2c(Cl)ccnc12	> 300000 nM
0.21 nM	–	–	–	O=C(C(=O)N1CCN(C(=O)c2ccccc2)CC1)c1c[nH]c2c(-c3nccs3)ccnc12	150000 nM
0.46 nM	–	–	–	Cc1ccn(-c2ccnc3c(C(=O)C(=O)N4CCN(C(=O)c5ccccc5)[C@H](C)C4)c[nH]c23)n1	300000 nM
0.24 nM	–	–	–	C[C@@H]1CN(C(=O)C(=O)c2c[nH]c3c(-c4cccs4)ccnc23)CCN1C(=O)c1ccccc1	168000 nM

EC50 [2]	AUC [3]	AUC (Rattus norvegicus [4])	F (Rattus norvegicus [5])	SMILES	CC50 at 72 h [1]
0.71 nM	–	–	–	Cc1cnc(-c2ccnc3c(C(=O)C(=O)N4CCN(C(=O)c5ccccc5)[C@H](C)C4)c[nH]c23)s1	28000 nM
0.2 nM	–	–	–	Cc1csc(-c2ccnc3c(C(=O)C(=O)N4CCN(C(=O)c5ccccc5)CC4)c[nH]c23)n1	23000 nM
0.27 nM	–	–	–	C[C@@H]1CN(C(=O)c2ccccc2)CCN1C(=O)C(=O)c1c[nH]c2c(-c3cnccn3)ccnc12	15300 nM
1.71 nM	–	–	–	O=C(C(=O)N1CCN(C(=O)c2ccccc2)CC1)c1c[nH]c2c(-c3cnccn3)ccnc12	> 300000 nM
46.3 nM	–	–	–	Cc1ccnc2c(C(=O)C(=O)N3CCN(C(=O)c4ccccc4)CC3)c[nH]c12	> 300000 nM
10.6 nM	–	–	–	O=C(C(=O)N1CCN(C(=O)c2ccccc2)CC1)c1c[nH]c2c(-n3nnc4cccnc43)ccnc12	> 300000 nM
22 nM	–	–	–	C[C@@H]1CN(C(=O)c2ccccc2)CCN1C(=O)C(=O)c1c[nH]c2cnccc12	> 300000 nM
23.6 nM	–	–	–	O=C(C(=O)N1CCN(C(=O)c2ccccc2)CC1)c1c[nH]c2c(-n3nnc4ccccc43)ccnc12	246000 nM
0.39 nM	–	–	–	O=C(C(=O)N1CCN(C(=O)c2ccccc2)CC1)c1c[nH]c2c(-c3ncco3)ccnc12	> 300000 nM
1.3 nM	–	–	–	COc1cncc2[nH]cc(C(=O)C(=O)N3CCN(C(=O)c4ccccc4)C[C@H]3C)c12	6000 nM
0.18 nM	–	–	–	C[C@@H]1CN(C(=O)c2ccccc2)CCN1C(=O)C(=O)c1c[nH]c2c(-c3ncco3)ccnc12	> 300000 nM
0.29 nM	–	–	–	CC(=O)c1ccc(-c2ccnc3c(C(=O)C(=O)N4CCN(C(=O)c5ccccc5)CC4)c[nH]c23)s1	268000 nM
580 nM	–	–	–	C[C@@H]1CN(C(=O)c2ccccc2)CCN1C(=O)C(=O)c1c[nH]c2ccncc12	> 300000 nM
1.05 nM	–	–	–	Cc1noc(C)c1-c1ccnc2c(C(=O)C(=O)N3CCN(C(=O)c4ccccc4)C[C@H]3C)c[nH]c12	> 300000 nM
0.8 nM	–	–	–	COc1cccc2[nH]cc(C(=O)C(=O)N3CCN(C(=O)c4ccccc4)C[C@H]3C)c12	250000 nM
0.93 nM	–	–	–	O=C(C(=O)N1CCN(C(=O)c2ccccc2)CC1)c1c[nH]c2c(-c3ccccn3)ccnc12	231000 nM
0.44 nM	–	3.3 µM·h	78%	C[C@@H]1CN(C(=O)C(=O)c2c[nH]c3c(-n4nccn4)ccnc23)CCN1C(=O)c1ccccc1	300000 nM
2.48 nM	–	–	–	CNC(=O)c1ccnc2c(C(=O)C(=O)N3CCN(C(=O)c4ccccc4)C[C@H]3C)c[nH]c12	> 300000 nM
0.18 nM	–	–	–	C[C@@H]1CN(C(=O)c2ccccc2)CCN1C(=O)C(=O)c1c[nH]c2c(-c3ccsc3)ccnc12	94500 nM
